Patent US6096930A, “Herbicidal cyclohexane-1,3-dione derivatives and their preparation process” (Korea Research Institute of Chemical Technology, priority 1994, dated 2000)
Read-outs that look alike come from different tables or passages of the source.

Assays:
Experiment in all cases: Herbicidal activity for paddy test
Assay type in all cases: in vivo
MOOVA = conditions: for pest or weed control at 2 g/ha: 0.002 kg/ha; for pest or weed control at 8 g/ha: 0.008 kg/ha; for pest or weed control at 31 g/ha: 0.031 kg/ha; for pest or weed control at 125 g/ha: 0.125 kg/ha; for pest or weed control at 500 g/ha: 0.500 kg/ha
Description: (§1) The sterilized sandy loam soil is filled in test pot having a surface area of 348 cm^2 for upland test conditions or 115 cm^2 for paddy test species were planted in furrows.
(§2) The herbicidal activity data were taken visually by percent control, wherein 0 signifies no herbicidal effect and 100 signifies complete kill.

ECHOR = conditions: for pest or weed control at 2 g/ha: 0.002 kg/ha; for pest or weed control at 8 g/ha: 0.008 kg/ha; for pest or weed control at 31 g/ha: 0.031 kg/ha; for pest or weed control at 125 g/ha: 0.125 kg/ha; for pest or weed control at 500 g/ha: 0.500 kg/ha
Description: as §1, §2

SCPJU = conditions: for pest or weed control at 2 g/ha: 0.002 kg/ha; for pest or weed control at 8 g/ha: 0.008 kg/ha; for pest or weed control at 31 g/ha: 0.031 kg/ha; for pest or weed control at 125 g/ha: 0.125 kg/ha; for pest or weed control at 500 g/ha: 0.500 kg/ha
Description: as §1, §2

ORYSA = conditions: for plant injury at 2 g/ha: 0.002 kg/ha; for plant injury at 8 g/ha: 0.008 kg/ha; for plant injury at 31 g/ha: 0.031 kg/ha; for plant injury at 125 g/ha: 0.125 kg/ha; for plant injury at 500 g/ha: 0.500 kg/ha
Description: as §1, §2

SAGPY = conditions: for pest or weed control at 2 g/ha: 0.002 kg/ha; for pest or weed control at 8 g/ha: 0.008 kg/ha; for pest or weed control at 31 g/ha: 0.031 kg/ha; for pest or weed control at 125 g/ha: 0.125 kg/ha; for pest or weed control at 500 g/ha: 0.500 kg/ha
Description: as §1, §2

[1] = 3 Leaf, read-out: Herbicidal activity, ORYSA (3 Leaf)
[2] = seed, read-out: Herbicidal activity, ORYSA (seed)

Row | SMILES | pest or weed control at 2 g/ha (MOOVA) | pest or weed control at 8 g/ha (MOOVA) | pest or weed control at 31 g/ha (MOOVA) | pest or weed control at 125 g/ha (MOOVA) | pest or weed control at 500 g/ha (MOOVA) | pest or weed control at 2 g/ha (ECHOR) | pest or weed control at 8 g/ha (ECHOR) | pest or weed control at 31 g/ha (ECHOR) | pest or weed control at 125 g/ha (ECHOR) | pest or weed control at 500 g/ha (ECHOR) | pest or weed control at 2 g/ha (SCPJU) | pest or weed control at 8 g/ha (SCPJU) | pest or weed control at 31 g/ha (SCPJU) | pest or weed control at 125 g/ha (SCPJU) | pest or weed control at 500 g/ha (SCPJU) | plant injury at 2 g/ha (ORYSA; [1]) | plant injury at 8 g/ha (ORYSA; [1]) | plant injury at 31 g/ha (ORYSA; [1]) | plant injury at 125 g/ha (ORYSA; [1]) | plant injury at 500 g/ha (ORYSA; [1]) | other results
1 | CCCC(=NOC)C1=C(O)CC(c2c(C)c(C)c3c(c2C)CC(C)(CC)C3)CC1=O (stereo not drawn) [Compound 16] | 0% | 0% | 30% | 50% | 50% | 0% | 30% | 70% | 100% | 100% | 0% | 0% | 0% | 0% | 0% | 0% | 0% | 0% | 0% | 30% | plant injury at 2 g/ha (ORYSA; [2]): 0%; plant injury at 8 g/ha (ORYSA; [2]): 0%; plant injury at 31 g/ha (ORYSA; [2]): 30%; plant injury at 125 g/ha (ORYSA; [2]): 100%; plant injury at 500 g/ha (ORYSA; [2]): 100%; pest or weed control at 2 g/ha (SAGPY): 0%; pest or weed control at 8 g/ha (SAGPY): 0%; pest or weed control at 31 g/ha (SAGPY): 0%; pest or weed control at 125 g/ha (SAGPY): 0%; pest or weed control at 500 g/ha (SAGPY): 30%
2 | CCC(=NOCC=CCl)C1=C(O)CC(c2c(C)c(C)c3c(c2C)CC(C)(CC)C3)CC1=O (stereo not drawn) [Compound 14] | 0% | 0% | 0% | 30% | 100% | 30% | 70% | 100% | 100% | 100% | 0% | 0% | 0% | 30% | 90% | 0% | 0% | 0% | 0% | 40% | plant injury at 2 g/ha (ORYSA; [2]): 0%; plant injury at 8 g/ha (ORYSA; [2]): 0%; plant injury at 31 g/ha (ORYSA; [2]): 0%; plant injury at 125 g/ha (ORYSA; [2]): 40%; plant injury at 500 g/ha (ORYSA; [2]): 100%; pest or weed control at 2 g/ha (SAGPY): 0%; pest or weed control at 8 g/ha (SAGPY): 0%; pest or weed control at 31 g/ha (SAGPY): 0%; pest or weed control at 125 g/ha (SAGPY): 0%; pest or weed control at 500 g/ha (SAGPY): 30%
3 | CCCC(=NOC)C1=C(O)CC(c2c(C)c3c(c(C)c2Cl)CC(C)(C)C3)CC1=O (stereo not drawn) [Compound 25] | 0% | 0% | 0% | 0% | 0% | 0% | 0% | 100% | 100% | 100% | 0% | 0% | 0% | 0% | 0% | 0% | 0% | 0% | 0% | 50% | plant injury at 2 g/ha (ORYSA; [2]): 0%; plant injury at 8 g/ha (ORYSA; [2]): 0%; plant injury at 31 g/ha (ORYSA; [2]): 60%; plant injury at 125 g/ha (ORYSA; [2]): 100%; plant injury at 500 g/ha (ORYSA; [2]): 100%; pest or weed control at 2 g/ha (SAGPY): 0%; pest or weed control at 8 g/ha (SAGPY): 0%; pest or weed control at 31 g/ha (SAGPY): 0%; pest or weed control at 125 g/ha (SAGPY): 0%; pest or weed control at 500 g/ha (SAGPY): 0%
4 | C=CCON=C(CC)C1=C(O)CC(c2c(C)c(C)c3c(c2C)CC(C)(CC)C3)CC1=O (stereo not drawn) [Compound 13, 5-(2-Ethyl-2,4,5,7-tetramethylindan-6-yl)-2-[1-(allyloxyimino)propyl]-3-hydroxycyclohex-2-en-1-one] | 0% | 0% | 0% | 0% | 30% | 30% | 50% | 100% | 100% | 100% | 0% | 0% | 0% | 0% | 0% | 0% | 0% | 0% | 0% | 30% | plant injury at 2 g/ha (ORYSA; [2]): 0%; plant injury at 8 g/ha (ORYSA; [2]): 30%; plant injury at 31 g/ha (ORYSA; [2]): 50%; plant injury at 125 g/ha (ORYSA; [2]): 100%; plant injury at 500 g/ha (ORYSA; [2]): 100%; pest or weed control at 2 g/ha (SAGPY): 0%; pest or weed control at 8 g/ha (SAGPY): 0%; pest or weed control at 31 g/ha (SAGPY): 0%; pest or weed control at 125 g/ha (SAGPY): 30%; pest or weed control at 500 g/ha (SAGPY): 30%
5 | C=CCON=C(CCC)C1=C(O)CC(c2c(C)c3c(c(C)c2Cl)CC(C)(C)C3)CC1=O (stereo not drawn) [Compound 27] | 0% | 0% | 0% | 0% | 0% | 0% | 0% | 50% | 100% | 100% | 0% | 0% | 0% | 0% | 0% | 0% | 0% | 0% | 0% | 0% | plant injury at 2 g/ha (ORYSA; [2]): 0%; plant injury at 8 g/ha (ORYSA; [2]): 0%; plant injury at 31 g/ha (ORYSA; [2]): 0%; plant injury at 125 g/ha (ORYSA; [2]): 100%; plant injury at 500 g/ha (ORYSA; [2]): 100%; pest or weed control at 2 g/ha (SAGPY): 0%; pest or weed control at 8 g/ha (SAGPY): 0%; pest or weed control at 31 g/ha (SAGPY): 0%; pest or weed control at 125 g/ha (SAGPY): 0%; pest or weed control at 500 g/ha (SAGPY): 0%
